# Assay results from patent publication US9789199B2, “MetAP-2 inhibitor polymersomes for therapeutic administration” (priority 2007, dated 2017).
# Entries after “also recorded” stand apart in the source; their conditions may differ.
# Columns and labels:
# [1] = test system: murine, human and metastatic tumors; details: mice, cited from earlier work
# [2] = test system: RAGE and HMGB-1; test: RAGE and HMGB-1 protein levels in HMVEC; format: cell-based; details: 0.1-100 nM
# Method: A dose dependent effect on RAGE expression was detected.
# RPE cells were cultivated as has been previously described^59. […] HMVECs, were purchased from Cambrex Bio Science Inc. (Rockland, Me.) and were maintained on collagen I coated plates with endothelial cell growth medium containing 2% FBS (EGM-2; Cambrex, Inc.) at 37° C. with humidified 95% air/5% CO2.
# Lodamin Reduces MCP-1 and VEGF Induced Vessel Permeability
# [3] = parent drug; cited from earlier work
# [4] = test system: LLC tumors; test: Oral Lodamin vs free TNP-470, primary Lewis lung carcinoma tumor experiments; format: in vivo, mouse; details: free TNP-470 given orally, 30 mg/kg q.o.d.
# Method: For tumor experiments: LLC cells (1×10^6) or B16/F10 melanoma cells (1×10^6) were implanted subcutaneously in 8 week old C57Bl/6J male mice (Jackson Laboratories, Bar Harbor, Me.). Oral availability of free TNP-470 was compared to that of Lodamin. A dose of 30 mg/kg q.o.d. of free TNP-470 and an equivalent dose of Lodamin (Lodamin, 6 mg in 100 μl/d) were administered to LLC tumor bearing mice (˜100 mm^3) and tumor growth was followed for 18 d. Free drug was given as a suspension in double distilled water and freshly prepared before each dose. Additionally, we compared different doses and frequencies of Lodamin treatment: 15 mg/kg q.d., 15 mg/kg q.o.d. and 30 mg/kg q.o.d. To eliminate any possible effect of the vehicle (polymer without drug) one group of mice was given micelles without drug and tumor progression was compared to water treated mice.
# For the melanoma tumor experiment, a dose of 15 mg/kg q.d. Lodamin was administered to B16/F10 melanoma bearing mice. In all experiments, tumor size and animal weight were monitored every 2 d. Tumor volume was measured with calipers in two diameters as follows: (width)^2×(length)×0.52. Note that all the above Lodamin doses are presented as TNP-470 equivalent.
# [5] = Body distribution and serum levels after oral administration; format: in vivo, mouse; details: post-administration
# Method: For all biodistribution studies we used a fluorescent marker for tracking Lodamin. Mice were administered 6-coumarin labeled mPEG-PLA by oral gavage for 3 d (100 μl of 1.5 mg/ml). On the third day of treatment, after 8 h of fasting, animals were sacrificed and spleen, kidney, brain, lungs, liver, intestine, stomach, and bladder were collected. The fluorescent 6-coumarin was extracted from the tissues by incubation with formamide for 48 h at 25° C. Samples were centrifuged and signal intensity of fluorescence of supernatants was detected with a Wallac 1420 VICTOR plate-reader (Perkin-Elmer Life Sciences) with excitation/emission at 488 nm/530 nm. […] Tissue autofluorescence was corrected by subtracting the fluorescent signal of non-treated mouse organs from the respective readings in treated mice. Similarly, levels of fluorescent signal in mouse sera were measured in different time points (1, 2, 4, 8, 24, 48 and 72 h) using excitation/emission readings at 488 nm/530 nm.
# In order to analyze cell uptake in the different tissues in tumor bearing mice, PEG-PLA-rhodamine micelles (100 μl of 1.5 mg/ml) or water were orally administered to C57Bl/6J mice bearing LLC tumors (200 mm^3) for 3 d. […] These suspensions were analyzed by flow cytometry in order to quantify the uptake of micelles into different tissue cells when compared to those in the untreated mouse.
# [6] = Balance beam motor coordination test (neurotoxicity); format: in vivo, mouse; details: free TNP-470 injected subcutaneously 30 mg/kg q.o.d., vs control
# Method: A slightly modified balance beam motor coordination test was performed on three groups of mice: Oral Lodamin treated mice (30 mg/kg eq. q.o.d.), free TNP-470 (30 mg/kg) subcutaneously injected mice and water treated mice (administered by gavage). The mice were pretreated for 14 d (n=4-5 per group) and then the mice were allowed to acclimate to the procedure room for 1 h, after which they were trained in 3 trials to cross a wide (20 mm width×1 m length) balance beam. All the mice crossed the wide beam without making foot-slip errors. The mice were then trained on a narrow (4 mm width×1 m length) beam for 3 trials. At the end of the training trials, no freezing behavior was observed, and the mice would start to walk within 4 seconds of being placed on the beam. The mice were then videotaped as they performed in 3 test trials of 3 beam crossings each—a total of 9 crossings per mouse. The 3 trials were separated by at least 1 h to avoid fatigue of the mice. Videotaped crossings were scored for number of foot-slip errors and time to cross. All experiments and scoring of the different groups were performed by an investigator who has been no knowledge regarding the treatment regime of the mice.
# [7] = high chemotherapeutic doses; cited from earlier work
# [8] = test system: obesity; details: mice; cited from earlier work
substance,measurement,setting,value
6-O—(N-chloroacetylcarbamoyl)fumagillol [TNP-470],inhibition of growth of human tumors,[1],up to 100%
same,inhibition of growth of metastatic tumors,[1],up to 100%
same,inhibition of growth of murine tumors,[1]; mostly 30 mg/kg subcutaneously every other day,up to 91%
same,RAGE and HMGB-1 levels,[2],reduced in a dose dependent manner
same,plasma half-life,[3],a few minutes
same,effect on growth of subcutaneous LLC tumors,[4],no inhibition; also recorded: had no effect
same,time up to which free drug was detected in mice sera,[5],up to 2 h
same,balance beam foot-slip errors,[6],over twice as many errors
same,neurotoxicity in patients,[7],many patients experience neurotoxicity
same,effect on obesity,[8],prevent diet-induced and genetic obesity
